Test results: patent US9365572B2, “PI3K and/or mTOR inhibitor” (XUANZHU PHARMA CO., LTD., priority 2012, dated 2016)

Tests used:
[1] = molecular target: AXL (Homo sapiens (Human), UniProt P30530); assay: Kinase selectivity, Mobility shift assay; format: biochemical
Procedure: (§1) Object: In this assay, the inhibitory activity of the test substance on the kinases listed in Table 3 was determined, and therefore the selectivity of the present compound was determined.
(§2) Except for the BRAF V600E kinase in Table 3, the Mobility shift assay was used for other kinases.
(§3) 1. Preparation of Agents:
(§4) • 1.1 1-fold kinase buffer without MnCl2: 50 mM HEPES, pH 7.5, 0.0015% Brij-35, 10 mM MgCl2, 2 mM DTT. • 1.2 1-fold kinase buffer with MnCl2: 50 mM HEPES, pH 7.5, 0.0015% Brij-35, 10 mM MgCl2, 10 mM MnCl2, 2 mM DTT. • 1.3 Termination solution: 100 mM HEPES, pH 7.5, 0.0015% Brij-35, 0.2% Coating Reagent#3, 50 mM EDTA. • 1.4 2.5-fold kinase solution: The kinase was added to the 1-fold kinase buffer to form a 2.5-fold kinase solution. • 1.5 2.5-fold substrate solution: FAM fluorescence-labelled polypeptide and ATP were added to the 1-fold kinase buffer to form a 2.5-fold substrate solution. 2. Preparation of 5-fold compound
(§5) The final test concentration of the compound was 10 μM at maximum. Firstly, a 50-fold concentration (i.e. 500 μM) was prepared with 100% DMSO. The compound was diluted with 100% DMSO by 5 folds at 5 concentrations (successively 500 μM, 100 μM, 20 μM, 4 μM, and 0.8 μM). After diluting with 1-fold kinase buffer by 10 folds, 5 μl of the samples were transferred to a 384-well reaction plate. Two negative control wells and two positive control wells were set at each line respectively. Replication was made in a 96-well plate in five concentrations of 5-fold compound. 10% DMSO was added to the positive control well, and 5 μl of EDTA (250 mM) was added to the negative control well.
(§6) • 3.1 To the 384-well reaction plate was added 5-fold compound dissolved in 10% DMSO at 5 μl/well. • 3.2 To the 384-well reaction plate was added 2.5-fold kinase solution at 10 μl/well. […] 4. […] 2. […] 3. […] 4.

[2] = molecular target: ERK2 (Homo sapiens (Human), UniProt P28482); assay: Kinase selectivity, Mobility shift assay; format: biochemical
Chain of ERK2 (P28482 whole entry, species assumed): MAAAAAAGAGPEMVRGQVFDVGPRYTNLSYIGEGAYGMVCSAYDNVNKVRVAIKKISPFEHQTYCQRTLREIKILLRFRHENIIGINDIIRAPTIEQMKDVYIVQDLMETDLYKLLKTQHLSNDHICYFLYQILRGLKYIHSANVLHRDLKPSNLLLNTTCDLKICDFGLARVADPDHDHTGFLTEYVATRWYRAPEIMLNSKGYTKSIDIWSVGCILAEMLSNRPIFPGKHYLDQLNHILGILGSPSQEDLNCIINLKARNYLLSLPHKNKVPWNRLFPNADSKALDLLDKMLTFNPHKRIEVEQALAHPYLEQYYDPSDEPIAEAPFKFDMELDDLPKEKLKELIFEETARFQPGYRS
Procedure: as §1, §2, §3, §4, §5, §6

[3] = molecular target: EphA1 (Homo sapiens (Human), UniProt P21709); assay: Kinase selectivity, Mobility shift assay; format: biochemical
Chain of EphA1 (P21709 26-976, species assumed): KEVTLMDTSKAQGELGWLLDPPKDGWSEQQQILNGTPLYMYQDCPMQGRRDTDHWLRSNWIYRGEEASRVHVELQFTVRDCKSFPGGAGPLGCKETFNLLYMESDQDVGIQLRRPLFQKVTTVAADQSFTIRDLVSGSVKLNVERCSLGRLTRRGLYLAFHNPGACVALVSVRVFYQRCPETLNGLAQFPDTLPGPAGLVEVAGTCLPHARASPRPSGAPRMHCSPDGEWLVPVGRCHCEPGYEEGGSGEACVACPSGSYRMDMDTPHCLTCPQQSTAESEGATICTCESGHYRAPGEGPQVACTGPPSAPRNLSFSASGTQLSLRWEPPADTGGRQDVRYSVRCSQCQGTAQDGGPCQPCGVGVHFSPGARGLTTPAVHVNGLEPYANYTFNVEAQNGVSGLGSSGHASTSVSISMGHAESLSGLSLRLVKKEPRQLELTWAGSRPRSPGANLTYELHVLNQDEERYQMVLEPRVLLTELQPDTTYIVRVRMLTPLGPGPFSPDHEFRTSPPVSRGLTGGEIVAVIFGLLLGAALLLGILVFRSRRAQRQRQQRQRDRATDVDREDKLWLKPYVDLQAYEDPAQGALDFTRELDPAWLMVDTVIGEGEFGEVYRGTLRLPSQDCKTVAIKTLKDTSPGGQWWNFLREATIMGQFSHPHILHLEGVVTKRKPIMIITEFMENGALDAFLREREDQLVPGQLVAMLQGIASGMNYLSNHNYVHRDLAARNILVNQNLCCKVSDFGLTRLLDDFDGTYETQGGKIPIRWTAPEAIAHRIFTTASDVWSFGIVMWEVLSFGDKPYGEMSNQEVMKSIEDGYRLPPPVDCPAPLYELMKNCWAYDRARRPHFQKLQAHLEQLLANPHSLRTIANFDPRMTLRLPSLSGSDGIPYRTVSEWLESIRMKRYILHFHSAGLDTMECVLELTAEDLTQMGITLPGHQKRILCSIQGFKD
Procedure: as §1, §2, §3, §4, §5, §6

[4] = molecular target: FLT3 (Homo sapiens (Human), UniProt P36888); assay: Kinase selectivity, Mobility shift assay; format: biochemical
Procedure: as §1, §2, §3, §4, §5, §6

[5] = molecular target: IRAK4 (Homo sapiens (Human), UniProt Q9NWZ3); assay: Kinase selectivity, Mobility shift assay; format: biochemical
Procedure: as §1, §2, §3, §4, §5, §6

[6] = molecular target: LCK (Homo sapiens (Human), UniProt P06239); assay: Kinase selectivity, Mobility shift assay; format: biochemical
Chain of LCK (P06239 whole entry, species assumed): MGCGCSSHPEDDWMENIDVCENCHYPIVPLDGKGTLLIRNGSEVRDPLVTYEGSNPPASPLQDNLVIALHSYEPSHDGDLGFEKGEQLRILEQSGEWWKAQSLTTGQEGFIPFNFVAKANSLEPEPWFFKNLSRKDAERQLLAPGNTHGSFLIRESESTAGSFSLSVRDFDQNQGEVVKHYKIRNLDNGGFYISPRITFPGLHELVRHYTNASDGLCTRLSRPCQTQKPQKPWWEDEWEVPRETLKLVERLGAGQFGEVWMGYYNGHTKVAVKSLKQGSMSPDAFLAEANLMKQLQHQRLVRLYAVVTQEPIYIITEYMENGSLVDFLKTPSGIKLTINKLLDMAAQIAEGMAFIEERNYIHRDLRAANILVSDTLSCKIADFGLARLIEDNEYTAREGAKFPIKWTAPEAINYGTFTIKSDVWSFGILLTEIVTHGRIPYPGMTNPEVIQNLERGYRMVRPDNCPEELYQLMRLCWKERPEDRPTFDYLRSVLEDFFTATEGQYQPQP
Procedure: as §1, §2, §3, §4, §5, §6

[7] = molecular target: PKACa (Homo sapiens (Human), UniProt P17612); assay: Kinase selectivity, Mobility shift assay; format: biochemical
Procedure: as §1, §2, §3, §4, §5, §6

[8] = molecular target: RSK2 (Homo sapiens (Human), UniProt P51812); assay: Kinase selectivity, Mobility shift assay; format: biochemical
Chain of RSK2 (P51812 whole entry, species assumed): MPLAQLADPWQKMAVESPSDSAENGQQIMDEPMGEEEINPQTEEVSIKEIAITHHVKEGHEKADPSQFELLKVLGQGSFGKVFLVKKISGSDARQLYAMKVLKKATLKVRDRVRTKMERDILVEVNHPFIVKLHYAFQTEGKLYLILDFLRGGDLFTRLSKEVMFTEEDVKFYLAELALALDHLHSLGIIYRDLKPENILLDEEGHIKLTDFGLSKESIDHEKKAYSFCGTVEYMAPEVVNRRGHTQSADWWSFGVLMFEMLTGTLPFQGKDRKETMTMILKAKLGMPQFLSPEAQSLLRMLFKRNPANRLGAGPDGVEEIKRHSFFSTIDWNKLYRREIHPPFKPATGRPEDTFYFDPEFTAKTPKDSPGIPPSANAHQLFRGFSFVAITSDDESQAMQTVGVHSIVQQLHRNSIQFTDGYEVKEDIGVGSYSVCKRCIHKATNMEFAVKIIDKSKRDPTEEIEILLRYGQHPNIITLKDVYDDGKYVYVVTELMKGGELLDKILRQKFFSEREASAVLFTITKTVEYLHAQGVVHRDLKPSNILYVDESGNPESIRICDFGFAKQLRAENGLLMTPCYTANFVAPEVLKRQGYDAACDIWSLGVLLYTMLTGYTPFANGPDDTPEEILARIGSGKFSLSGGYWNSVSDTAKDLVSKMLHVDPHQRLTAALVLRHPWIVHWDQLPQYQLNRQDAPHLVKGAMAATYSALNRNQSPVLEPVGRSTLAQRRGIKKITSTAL
Procedure: as §1, §2, §3, §4, §5, §6

[9] = molecular target: TAOK2 (Homo sapiens (Human), UniProt Q9UL54); assay: Kinase selectivity, Mobility shift assay; format: biochemical
Chain of TAOK2 (Q9UL54 whole entry, species assumed): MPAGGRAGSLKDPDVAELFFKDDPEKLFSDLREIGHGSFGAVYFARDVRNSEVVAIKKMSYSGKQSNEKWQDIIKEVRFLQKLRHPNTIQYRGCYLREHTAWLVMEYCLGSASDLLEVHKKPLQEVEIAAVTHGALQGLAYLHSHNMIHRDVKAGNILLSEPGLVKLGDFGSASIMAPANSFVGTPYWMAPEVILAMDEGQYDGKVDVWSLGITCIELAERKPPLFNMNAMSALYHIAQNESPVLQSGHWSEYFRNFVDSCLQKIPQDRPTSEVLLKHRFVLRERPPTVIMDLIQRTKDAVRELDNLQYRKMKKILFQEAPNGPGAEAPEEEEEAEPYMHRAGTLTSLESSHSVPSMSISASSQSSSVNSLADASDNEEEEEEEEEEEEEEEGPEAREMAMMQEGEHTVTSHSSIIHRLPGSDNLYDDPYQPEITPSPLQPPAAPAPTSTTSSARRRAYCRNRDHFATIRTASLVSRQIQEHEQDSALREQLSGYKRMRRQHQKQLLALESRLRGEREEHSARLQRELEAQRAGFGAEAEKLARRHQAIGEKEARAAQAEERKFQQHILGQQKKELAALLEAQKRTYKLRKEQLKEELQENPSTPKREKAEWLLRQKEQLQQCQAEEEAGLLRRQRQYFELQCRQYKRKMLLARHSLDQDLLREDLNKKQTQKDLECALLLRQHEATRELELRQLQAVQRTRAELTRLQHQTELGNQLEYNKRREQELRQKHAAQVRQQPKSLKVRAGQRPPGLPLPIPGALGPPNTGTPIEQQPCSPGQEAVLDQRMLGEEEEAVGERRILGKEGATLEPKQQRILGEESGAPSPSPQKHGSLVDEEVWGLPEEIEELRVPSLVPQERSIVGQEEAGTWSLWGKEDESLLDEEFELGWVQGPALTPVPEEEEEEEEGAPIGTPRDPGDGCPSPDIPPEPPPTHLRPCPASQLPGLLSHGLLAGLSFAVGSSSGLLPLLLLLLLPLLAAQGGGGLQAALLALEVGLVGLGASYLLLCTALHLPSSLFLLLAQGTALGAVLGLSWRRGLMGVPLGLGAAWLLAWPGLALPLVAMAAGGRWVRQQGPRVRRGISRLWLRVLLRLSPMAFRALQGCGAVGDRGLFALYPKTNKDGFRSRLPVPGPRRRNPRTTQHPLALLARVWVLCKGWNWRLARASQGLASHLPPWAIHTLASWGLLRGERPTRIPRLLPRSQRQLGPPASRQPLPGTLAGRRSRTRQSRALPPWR
Procedure: as §1, §2, §3, §4, §5, §6

[10] = test system: ImidazolineI2, Central; assay: Radioligand binding assay No. 241000; settings: test substance 10 μM; rat
[11] = test system: Phorbol Ester; assay: Radioligand binding assay No. 264500; settings: test substance 10 μM; mouse

Chain of AXL (P30530 26-894, species assumed): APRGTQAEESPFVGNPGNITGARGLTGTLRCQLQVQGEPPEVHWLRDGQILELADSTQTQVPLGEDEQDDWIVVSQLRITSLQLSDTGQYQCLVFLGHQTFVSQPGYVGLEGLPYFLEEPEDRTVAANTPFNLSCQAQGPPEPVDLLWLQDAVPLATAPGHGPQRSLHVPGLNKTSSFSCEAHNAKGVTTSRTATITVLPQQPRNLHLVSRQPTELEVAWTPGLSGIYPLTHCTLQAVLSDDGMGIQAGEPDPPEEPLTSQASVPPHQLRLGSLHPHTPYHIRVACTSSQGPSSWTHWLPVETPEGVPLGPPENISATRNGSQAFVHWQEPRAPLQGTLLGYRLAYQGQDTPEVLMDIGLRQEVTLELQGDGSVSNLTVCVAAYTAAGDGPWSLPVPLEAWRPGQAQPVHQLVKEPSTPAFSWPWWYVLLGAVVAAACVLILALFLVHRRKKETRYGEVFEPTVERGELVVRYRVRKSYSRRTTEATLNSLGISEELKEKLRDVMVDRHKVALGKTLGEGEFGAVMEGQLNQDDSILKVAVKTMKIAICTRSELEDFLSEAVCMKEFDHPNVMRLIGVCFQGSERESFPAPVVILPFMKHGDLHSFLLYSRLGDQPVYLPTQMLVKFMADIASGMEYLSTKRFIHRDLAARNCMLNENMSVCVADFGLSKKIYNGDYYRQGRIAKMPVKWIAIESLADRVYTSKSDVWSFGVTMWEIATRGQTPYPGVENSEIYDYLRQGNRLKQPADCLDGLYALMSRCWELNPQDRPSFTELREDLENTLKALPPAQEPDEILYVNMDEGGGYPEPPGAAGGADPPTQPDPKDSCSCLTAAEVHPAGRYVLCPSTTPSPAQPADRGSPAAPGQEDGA

Q: What does the source list for `Nc1ccc(-c2ccc3ncc4c(=O)[nH]c(=O)n(-c5cccc(C(F)(F)F)c5)c4c3n2)cn1` [Compound 5, 9-(6-aminopyridin-3-yl)-1-(3-(trifluoromethyl)phenyl)pyrimido[5,4-c][1,5]naphthyridine-2,4(1H,3H)-dione]?
A: IC50 [1]: 2140 nM; IC50 [2]: > 10000 nM; IC50 [3]: 1470 nM; IC50 [4]: 6250 nM; IC50 [5]: > 10000 nM; IC50 [6]: 1130 nM; IC50 [7]: > 10000 nM; IC50 [8]: > 10000 nM; IC50 [9]: > 10000 nM; Inhibitory rate (%), ImidazolineI2, Central [10]: 0%; Inhibitory rate (%), Phorbol Ester [11]: 27%
